According to the NIST ThermoML archive (doi:10.1021/je8001305):
± gives the expanded uncertainty stated by the source.

Assay: xn = mol fraction of the nth substance listed
Details: Liquid, Vibrating tube method

CC(C)O [propan-2-ol] + O
mass density (325.1 K, 4598.7 kPa, x1 = 0.2483): 877.08 ± 0.89 kg/m3
mass density (325.1 K, 5089.3 kPa, x1 = 0.2483): 877.36 ± 0.89 kg/m3
mass density (325.1 K, 5564.2 kPa, x1 = 0.2483): 877.68 ± 0.89 kg/m3
mass density (325.1 K, 5954.2 kPa, x1 = 0.2483): 877.93 ± 0.89 kg/m3
mass density (325.1 K, 6394.3 kPa, x1 = 0.2483): 878.21 ± 0.89 kg/m3
mass density (325.1 K, 6808.5 kPa, x1 = 0.2483): 878.48 ± 0.89 kg/m3
mass density (325.1 K, 7288 kPa, x1 = 0.2483): 878.8 ± 0.89 kg/m3
mass density (325.1 K, 7782.7 kPa, x1 = 0.2483): 879.08 ± 0.89 kg/m3
mass density (325.1 K, 8079.1 kPa, x1 = 0.2483): 879.34 ± 0.89 kg/m3
mass density (325.1 K, 8438.9 kPa, x1 = 0.2483): 879.63 ± 0.89 kg/m3
mass density (325.1 K, 8828.5 kPa, x1 = 0.2483): 879.87 ± 0.89 kg/m3
mass density (325.1 K, 9358.9 kPa, x1 = 0.2483): 880.18 ± 0.89 kg/m3
mass density (325.13 K, 29.2 kPa, x1 = 0.7258): 782.68 ± 0.79 kg/m3
mass density (325.13 K, 83 kPa, x1 = 0.7258): 782.69 ± 0.79 kg/m3
mass density (325.13 K, 268.1 kPa, x1 = 0.7258): 782.93 ± 0.79 kg/m3
mass density (325.13 K, 528.3 kPa, x1 = 0.7258): 783.18 ± 0.79 kg/m3
mass density (325.13 K, 873.7 kPa, x1 = 0.7258): 783.5 ± 0.79 kg/m3
mass density (325.13 K, 1298.6 kPa, x1 = 0.7258): 783.92 ± 0.8 kg/m3
mass density (325.13 K, 1709.2 kPa, x1 = 0.7258): 784.33 ± 0.8 kg/m3
mass density (325.13 K, 2200.7 kPa, x1 = 0.7258): 784.79 ± 0.8 kg/m3
mass density (325.13 K, 2652.1 kPa, x1 = 0.7258): 785.22 ± 0.8 kg/m3
mass density (325.13 K, 3101.7 kPa, x1 = 0.7258): 785.67 ± 0.8 kg/m3
mass density (325.13 K, 3550.6 kPa, x1 = 0.7258): 786.11 ± 0.8 kg/m3
mass density (325.13 K, 4068.3 kPa, x1 = 0.7258): 786.61 ± 0.8 kg/m3
mass density (325.13 K, 4579.4 kPa, x1 = 0.7258): 787.07 ± 0.8 kg/m3
mass density (325.13 K, 5021.7 kPa, x1 = 0.7258): 787.49 ± 0.8 kg/m3
mass density (325.13 K, 5496.1 kPa, x1 = 0.7258): 787.93 ± 0.8 kg/m3
mass density (325.13 K, 5972.3 kPa, x1 = 0.7258): 788.38 ± 0.81 kg/m3
mass density (325.13 K, 6450.8 kPa, x1 = 0.7258): 788.82 ± 0.81 kg/m3
mass density (325.13 K, 6903 kPa, x1 = 0.7258): 789.24 ± 0.81 kg/m3
mass density (325.13 K, 7392 kPa, x1 = 0.7258): 789.7 ± 0.81 kg/m3
mass density (325.13 K, 7861.1 kPa, x1 = 0.7258): 790.11 ± 0.81 kg/m3
mass density (325.13 K, 8322.8 kPa, x1 = 0.7258): 790.52 ± 0.81 kg/m3
mass density (325.13 K, 8813.9 kPa, x1 = 0.7258): 790.98 ± 0.81 kg/m3
mass density (325.13 K, 9287.4 kPa, x1 = 0.7258): 791.41 ± 0.81 kg/m3
mass density (325.13 K, 9829.7 kPa, x1 = 0.7258): 791.93 ± 0.81 kg/m3
mass density (350.15 K, 88 kPa, x1 = 0.4939): 789.82 ± 0.8 kg/m3
mass density (350.15 K, 161.7 kPa, x1 = 0.4939): 789.8 ± 0.8 kg/m3
mass density (350.15 K, 387.8 kPa, x1 = 0.4939): 790.1 ± 0.8 kg/m3
mass density (350.15 K, 695.2 kPa, x1 = 0.4939): 790.45 ± 0.8 kg/m3
mass density (350.15 K, 1020.8 kPa, x1 = 0.4939): 790.78 ± 0.8 kg/m3
mass density (350.15 K, 1400.1 kPa, x1 = 0.4939): 791.25 ± 0.8 kg/m3
mass density (350.15 K, 1795.8 kPa, x1 = 0.4939): 791.61 ± 0.8 kg/m3
mass density (350.15 K, 2147.1 kPa, x1 = 0.4939): 791.96 ± 0.81 kg/m3
mass density (350.15 K, 2497.9 kPa, x1 = 0.4939): 792.31 ± 0.81 kg/m3
mass density (350.15 K, 2892.7 kPa, x1 = 0.4939): 792.74 ± 0.81 kg/m3
mass density (350.15 K, 3277.9 kPa, x1 = 0.4939): 793.12 ± 0.81 kg/m3
mass density (350.15 K, 3611.5 kPa, x1 = 0.4939): 793.5 ± 0.81 kg/m3
mass density (350.15 K, 4087.3 kPa, x1 = 0.4939): 794.01 ± 0.81 kg/m3
mass density (350.15 K, 4606.7 kPa, x1 = 0.4939): 794.49 ± 0.81 kg/m3
mass density (350.15 K, 4955.2 kPa, x1 = 0.4939): 794.83 ± 0.81 kg/m3
mass density (350.15 K, 5376 kPa, x1 = 0.4939): 795.26 ± 0.81 kg/m3
mass density (350.15 K, 5837.6 kPa, x1 = 0.4939): 795.69 ± 0.81 kg/m3
mass density (350.15 K, 6296.4 kPa, x1 = 0.4939): 796.18 ± 0.81 kg/m3
mass density (350.15 K, 6886.6 kPa, x1 = 0.4939): 796.77 ± 0.82 kg/m3
mass density (350.15 K, 7400.8 kPa, x1 = 0.4939): 797.28 ± 0.82 kg/m3
mass density (350.15 K, 7935.6 kPa, x1 = 0.4939): 797.73 ± 0.82 kg/m3
mass density (350.15 K, 8400.3 kPa, x1 = 0.4939): 798.24 ± 0.82 kg/m3
mass density (350.15 K, 9000.6 kPa, x1 = 0.4939): 798.68 ± 0.82 kg/m3
mass density (350.15 K, 9521.2 kPa, x1 = 0.4939): 799.18 ± 0.82 kg/m3
mass density (350.18 K, 84.4 kPa, x1 = 0.2483): 850.19 ± 0.86 kg/m3
mass density (350.18 K, 220 kPa, x1 = 0.2483): 850.33 ± 0.86 kg/m3
mass density (350.18 K, 511 kPa, x1 = 0.2483): 850.54 ± 0.86 kg/m3
mass density (350.18 K, 938.8 kPa, x1 = 0.2483): 850.91 ± 0.86 kg/m3
mass density (350.18 K, 1369.7 kPa, x1 = 0.2483): 851.29 ± 0.86 kg/m3
mass density (350.18 K, 2066.9 kPa, x1 = 0.2483): 851.75 ± 0.86 kg/m3
mass density (350.18 K, 2381 kPa, x1 = 0.2483): 852.09 ± 0.86 kg/m3
mass density (350.18 K, 2718.1 kPa, x1 = 0.2483): 852.39 ± 0.86 kg/m3
mass density (350.18 K, 3107.7 kPa, x1 = 0.2483): 852.73 ± 0.86 kg/m3
mass density (350.18 K, 3464.8 kPa, x1 = 0.2483): 853.04 ± 0.87 kg/m3
mass density (350.18 K, 3957.6 kPa, x1 = 0.2483): 853.37 ± 0.87 kg/m3
mass density (350.18 K, 4346 kPa, x1 = 0.2483): 853.71 ± 0.87 kg/m3
mass density (350.18 K, 4781.1 kPa, x1 = 0.2483): 854.06 ± 0.87 kg/m3
mass density (350.18 K, 5267.8 kPa, x1 = 0.2483): 854.49 ± 0.87 kg/m3
mass density (350.18 K, 5743.8 kPa, x1 = 0.2483): 854.83 ± 0.87 kg/m3
mass density (350.18 K, 6196.4 kPa, x1 = 0.2483): 855.2 ± 0.87 kg/m3
mass density (350.18 K, 6734.2 kPa, x1 = 0.2483): 855.63 ± 0.87 kg/m3
mass density (350.18 K, 7374.9 kPa, x1 = 0.2483): 856.07 ± 0.87 kg/m3
mass density (350.18 K, 7999 kPa, x1 = 0.2483): 856.54 ± 0.87 kg/m3
mass density (350.18 K, 8630.3 kPa, x1 = 0.2483): 857.02 ± 0.87 kg/m3
mass density (350.18 K, 9298.3 kPa, x1 = 0.2483): 857.54 ± 0.87 kg/m3
mass density (351.14 K, 93.2 kPa, x1 = 0.7258): 756.9 ± 0.77 kg/m3
mass density (351.14 K, 241.5 kPa, x1 = 0.7258): 757.15 ± 0.77 kg/m3
mass density (351.14 K, 444.5 kPa, x1 = 0.7258): 757.34 ± 0.77 kg/m3
mass density (351.14 K, 822.4 kPa, x1 = 0.7258): 757.8 ± 0.77 kg/m3
mass density (351.14 K, 1271.6 kPa, x1 = 0.7258): 758.33 ± 0.77 kg/m3
mass density (351.14 K, 1673.9 kPa, x1 = 0.7258): 758.75 ± 0.77 kg/m3
mass density (351.14 K, 2070.5 kPa, x1 = 0.7258): 759.26 ± 0.77 kg/m3
mass density (351.14 K, 2461.1 kPa, x1 = 0.7258): 759.66 ± 0.77 kg/m3
mass density (351.14 K, 2863.4 kPa, x1 = 0.7258): 760.12 ± 0.78 kg/m3
mass density (351.14 K, 3280.9 kPa, x1 = 0.7258): 760.61 ± 0.78 kg/m3
mass density (351.14 K, 4252.5 kPa, x1 = 0.7258): 761.65 ± 0.78 kg/m3
mass density (351.14 K, 4626.4 kPa, x1 = 0.7258): 762.11 ± 0.78 kg/m3
mass density (351.14 K, 5075.9 kPa, x1 = 0.7258): 762.61 ± 0.78 kg/m3
mass density (351.14 K, 5558.5 kPa, x1 = 0.7258): 763.09 ± 0.78 kg/m3
mass density (351.14 K, 5976.2 kPa, x1 = 0.7258): 763.59 ± 0.78 kg/m3
mass density (351.14 K, 6439.8 kPa, x1 = 0.7258): 764.08 ± 0.79 kg/m3
mass density (351.14 K, 6882.2 kPa, x1 = 0.7258): 764.57 ± 0.79 kg/m3
mass density (351.14 K, 7348.6 kPa, x1 = 0.7258): 765.1 ± 0.79 kg/m3
mass density (351.14 K, 7809.3 kPa, x1 = 0.7258): 765.6 ± 0.79 kg/m3
mass density (351.14 K, 8254 kPa, x1 = 0.7258): 766.09 ± 0.79 kg/m3
mass density (351.14 K, 8720.2 kPa, x1 = 0.7258): 766.63 ± 0.79 kg/m3
mass density (351.14 K, 9221.3 kPa, x1 = 0.7258): 767.15 ± 0.79 kg/m3
mass density (351.14 K, 9714.8 kPa, x1 = 0.7258): 767.73 ± 0.79 kg/m3
mass density (351.14 K, 10240 kPa, x1 = 0.7258): 768.31 ± 0.8 kg/m3
